Test results: ChEMBL document CHEMBL4619739, “Synthesis and biological evaluation of heterocyclic bis-aryl amides as novel Src homology 2 domain containing protein tyrosine phosphatase-2 (SHP2) inhibitors” (Bioorg Med Chem Lett, 2020)
Activity calls are given as the source filed them. No cut-off for these calls is given here.

Experiments:
[1] = molecular target: T1, Tyrosine-protein phosphatase non-receptor type 1 (Homo sapiens, UniProt P18031); experiment: Inhibition of GST-tagged PTP1B (unknown origin) using pNPP as substrate measured for 3 mins by colorimetric assay
T1 sequence (P18031 whole entry): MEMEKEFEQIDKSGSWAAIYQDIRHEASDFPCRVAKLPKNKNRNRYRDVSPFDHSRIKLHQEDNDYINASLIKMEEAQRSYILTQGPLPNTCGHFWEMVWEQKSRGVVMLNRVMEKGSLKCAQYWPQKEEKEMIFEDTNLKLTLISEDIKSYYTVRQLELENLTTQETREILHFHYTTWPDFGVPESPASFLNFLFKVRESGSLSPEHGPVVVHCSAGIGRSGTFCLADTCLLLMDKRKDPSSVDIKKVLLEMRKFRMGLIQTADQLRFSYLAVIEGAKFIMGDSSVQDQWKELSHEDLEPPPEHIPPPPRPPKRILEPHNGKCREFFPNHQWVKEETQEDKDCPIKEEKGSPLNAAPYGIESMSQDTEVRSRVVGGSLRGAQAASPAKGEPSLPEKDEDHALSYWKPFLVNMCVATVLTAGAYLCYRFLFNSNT

[2] = molecular target: T2, Tyrosine-protein phosphatase non-receptor type 11 (Homo sapiens) (UniProt Q06124); experiment: Inhibition of SHP2 (unknown origin) at 20 ug/ml using 3-o-methylfluorescein phosphate as substrate by fluorescence assay relative to control
T2 sequence (whole entry): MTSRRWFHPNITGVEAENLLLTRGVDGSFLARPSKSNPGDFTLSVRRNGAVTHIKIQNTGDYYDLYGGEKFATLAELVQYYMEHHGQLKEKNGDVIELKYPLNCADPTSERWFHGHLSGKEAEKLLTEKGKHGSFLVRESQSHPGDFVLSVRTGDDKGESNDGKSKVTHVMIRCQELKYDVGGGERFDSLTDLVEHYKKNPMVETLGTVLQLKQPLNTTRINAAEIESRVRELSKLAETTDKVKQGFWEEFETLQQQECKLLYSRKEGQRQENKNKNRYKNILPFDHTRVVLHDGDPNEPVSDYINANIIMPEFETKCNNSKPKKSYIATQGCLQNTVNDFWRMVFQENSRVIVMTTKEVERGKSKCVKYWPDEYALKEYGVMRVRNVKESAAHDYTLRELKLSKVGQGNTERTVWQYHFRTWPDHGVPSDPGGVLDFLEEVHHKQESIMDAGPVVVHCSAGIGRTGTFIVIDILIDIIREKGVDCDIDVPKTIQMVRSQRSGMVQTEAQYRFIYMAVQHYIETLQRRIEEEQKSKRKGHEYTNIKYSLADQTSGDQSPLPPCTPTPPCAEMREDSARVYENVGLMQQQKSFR

[3] = molecular target: T3, Tyrosine-protein phosphatase non-receptor type 11 (Homo sapiens, UniProt Q06124); experiment: Inhibition of SHP2 (unknown origin) using 3-o-methylfluorescein phosphate as substrate by fluorescence assay
T3 sequence (Q06124 whole entry): T2 sequence (whole entry)

[4] = molecular target: T4, Tyrosine-protein phosphatase non-receptor type 1 (Homo sapiens) (UniProt P18031); experiment: Inhibition of GST-tagged PTP1B (unknown origin) at 20 ug/ml using pNPP as substrate measured for 3 mins by colorimetric assay relative to control
T4 sequence (whole entry): T1 sequence (P18031 whole entry)

[5] = molecular target: T2, Tyrosine-protein phosphatase non-receptor type 11 (Homo sapiens); experiment: Competitive inhibition of SHP2 (unknown origin) assessed as increase in Km with constant Vmax using DiFMUP as substrate by Lineweaver-Burk plot analysis
Homo sapiens [6] = organism: Homo sapiens; experiment: Selectivity index, ratio of IC50 for SHP1 (unknown origin) to IC50 for SHP2 (unknown origin)
Homo sapiens [7] = organism: Homo sapiens; experiment: Selectivity index, ratio of IC50 for SHP2 (unknown origin) to IC50 for GST-tagged TCPTP (unknown origin)
[8] = molecular target: Tyrosine-protein phosphatase non-receptor type 6 (Homo sapiens) (UniProt P29350); experiment: Inhibition of SHP1 (unknown origin) at 20 ug/ml using 3-o-methylfluorescein phosphate as substrate by fluorescence assay relative to control
Sequence of Tyrosine-protein phosphatase non-receptor type 6 (Homo sapiens) (P29350 whole entry): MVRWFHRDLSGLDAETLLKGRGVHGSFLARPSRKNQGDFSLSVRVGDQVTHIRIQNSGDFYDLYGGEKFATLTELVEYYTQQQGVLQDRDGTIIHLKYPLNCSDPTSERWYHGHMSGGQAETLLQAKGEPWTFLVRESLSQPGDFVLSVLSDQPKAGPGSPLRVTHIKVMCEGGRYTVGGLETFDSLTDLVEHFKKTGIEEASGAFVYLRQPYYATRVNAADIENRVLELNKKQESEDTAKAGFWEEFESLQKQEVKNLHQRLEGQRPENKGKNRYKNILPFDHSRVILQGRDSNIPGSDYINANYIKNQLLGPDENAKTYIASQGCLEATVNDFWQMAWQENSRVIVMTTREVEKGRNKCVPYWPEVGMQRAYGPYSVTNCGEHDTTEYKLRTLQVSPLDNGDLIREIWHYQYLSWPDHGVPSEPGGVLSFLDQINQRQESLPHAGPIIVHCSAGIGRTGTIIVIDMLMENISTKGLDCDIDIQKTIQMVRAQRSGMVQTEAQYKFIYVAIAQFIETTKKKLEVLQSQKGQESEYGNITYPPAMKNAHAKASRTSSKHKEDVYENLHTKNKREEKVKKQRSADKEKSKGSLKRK

[9] = molecular target: T5, Tyrosine-protein phosphatase non-receptor type 2 (Homo sapiens, UniProt P17706); experiment: Inhibition of GST-tagged TCPTP (unknown origin) using pNPP as substrate measured for 3 mins by colorimetric assay
T5 sequence (P17706 whole entry): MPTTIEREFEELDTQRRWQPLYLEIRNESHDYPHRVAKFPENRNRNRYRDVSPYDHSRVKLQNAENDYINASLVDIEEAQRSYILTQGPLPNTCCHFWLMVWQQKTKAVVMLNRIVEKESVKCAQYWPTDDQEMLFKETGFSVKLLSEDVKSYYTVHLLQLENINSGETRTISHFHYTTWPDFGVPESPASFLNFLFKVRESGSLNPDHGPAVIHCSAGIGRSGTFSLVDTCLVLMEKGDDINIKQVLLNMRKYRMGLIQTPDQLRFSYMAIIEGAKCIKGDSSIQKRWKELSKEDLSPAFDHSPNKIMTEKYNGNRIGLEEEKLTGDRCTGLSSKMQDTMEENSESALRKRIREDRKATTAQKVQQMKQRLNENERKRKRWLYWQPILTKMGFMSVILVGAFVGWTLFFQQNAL

[10] = molecular target: T2, Tyrosine-protein phosphatase non-receptor type 11 (Homo sapiens); experiment: Fast binding inhibition of SHP2 (unknown origin) using DiFMUP as substrate by enzyme kinetics assay
[11] = molecular target: T2, Tyrosine-protein phosphatase non-receptor type 11 (Homo sapiens); experiment: Reversible inhibition of SHP2 (unknown origin) using DiFMUP as substrate by enzyme kinetics based dialysis assay

| Compound | IC50 [1] | inhibition [2] | IC50 [3] | further results |
| --- | --- | --- | --- | --- |
| O=C(Nc1ccccc1)c1ccc(-c2ccc(C(=O)Nc3ccccc3)[nH]2)cc1 | 23.4 µM | < 50% | – | – |
| O=C(Nc1ccc(F)cc1)c1ccc(-c2ccc(C(=O)Nc3ccc(F)cc3)o2)cc1 | 10.5 µM | < 50% | – | – |
| O=C(Nc1ccc(F)cc1)c1ccc(-c2ccc(C(=O)Nc3ccc(F)cc3)[nH]2)cc1 | 28.3 µM | – | 20.3 µM | – |
| O=C(Nc1ccc(Cl)cc1)c1ccc(-c2ccc(C(=O)Nc3ccc(Cl)cc3)o2)cc1 | 15.7 µM | < 50% | – | – |
| O=C(Nc1ccc(F)cc1)c1ccc(-c2ncc(C(=O)Nc3ccc(F)cc3)s2)cc1 | – | – | 4.63 µM | inhibition [4]: < 50% |
| O=C(NC1CCCCC1)c1ccc(-c2ccc(C(=O)NC3CCCCC3)s2)cc1 | 4.88 µM | – | 10.7 µM | – |
| O=C(Nc1ccc(F)cc1)c1ccc(-c2ccc(C(=O)Nc3ccc(F)cc3)s2)cc1 | – | – | 2.63 µM | inhibition [5]: Active; Ratio IC50 (Homo sapiens [6]): > 43.8; Ratio IC50 (Homo sapiens [7]): 4; inhibition [8]: < 50%; IC50 [9]: 9.16 µM; inhibition [10]: Active; inhibition [4]: < 50%; inhibition [11]: Active |
| O=C(NC1CCCCC1)c1ccc(-c2ccc(C(=O)NC3CCCCC3)o2)cc1 | – | < 50% | – | inhibition [4]: < 50% |
| O=C(Nc1ccccc1)c1ccc(-c2ncc(C(=O)Nc3ccccc3)s2)cc1 | 7.94 µM | < 50% | – | – |
| SODIUM ORTHOVANAD | – | – | – | Ratio IC50 (Homo sapiens [6]): 1.92 |
| O=C(Nc1ccccc1)c1ccc(-c2ccc(C(=O)Nc3ccccc3)o2)cc1 | 3.48 µM | – | 4.63 µM | – |
| O=C(Nc1ccccc1)c1ccc(-c2ccc(C(=O)Nc3ccccc3)s2)cc1 | 3.52 µM | – | 5.75 µM | – |
